Laboratory results published in US20150337013A1, “NOVEL ANTIBACTERIAL AGENTS FOR THE TREATMENT OF GRAM POSITIVE INFECTIONS” (priority 2008, published 2015).
Read-outs that look alike come from different tables or passages of the source.

Assays:
[1] = tested on: Enterococcus faecalis EFS.201 (ATCC 49452); assay type: cell-based
Method in brief: (§1)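 Broth microdilution per CLSI M7-A7 in Mueller Hinton broth supplemented with 50 mg/L calcium, 5×10^5 bacteria per well, 2-fold compound dilutions, DMSO ≤1%. Plates incubated 18-20 hours at 37° C with aeration (200 rpm); MIC (μg/mL) is the lowest concentration giving no visible turbidity.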

[2] = tested on: Enterococcus faecalis EFS.312, Daptomycin resistant mutant (EFA); assay type: cell-based; settings: MHBc with 50 mg/L calcium, 18-20 hours at 37° C.
Method in brief: as §1

[3] = tested on: Enterococcus faecium EFM.14 (ATCC 6569); assay type: cell-based
Method in brief: as §1

[4] = tested on: Enterococcus faecium EFM.384, Daptomycin resistant mutant (14-A); assay type: cell-based; settings: MHBc with 50 mg/L calcium, 18-20 hours at 37° C.
Method in brief: as §1

[5] = tested on: Staphylococcus aureus SAU.278, Daptomycin resistant mutant (D10); assay type: cell-based; settings: MHBc with 50 mg/L calcium, 18-20 hours at 37° C.
Method in brief: as §1

[6] = tested on: Staphylococcus aureus SAU.399 (ATCC 43300), Methicillin and Oxacillin Resistant; assay type: cell-based
Method in brief: as §1

[7] = tested on: Staphylococcus aureus SAU.42 (ATCC 29213); assay type: cell-based
Method in brief: as §1

[8] = MHBc with 50 mg/L calcium, 18-20 hours at 37° C.

SMILES | Efs201 MIC ([1]; ATCC 49452) [µg/mL] | Efs312 MIC [2] [µg/mL] | Efm14 MIC ([3]; ATCC 6569) [µg/mL] | Efm384 MIC [4] [µg/mL] | Sa278 MIC [5] [µg/mL] | Sa399 MIC ([6]; ATCC 43300) [µg/mL] | Sa42 MIC ([7]; ATCC 29213) [µg/mL] | C. diff MIC90 (Clostridium difficile) [µg/mL] | Efs201 MIC [1, 8] [µg/mL] | Efm14 MIC [3, 8] [µg/mL] | Sa399 MIC [6, 8] [µg/mL] | Sa42 MIC [7, 8] [µg/mL]
C[C@H](CC(=O)O)[C@@H]1NC(=O)[C@@H](CO)NC(=O)CNC(=O)[C@H](CC(=O)O)NC(=O)[C@@H](C)NC(=O)[C@H](CC(=O)O)NC(=O)[C@H](CCCN)NC(=O)CNC(=O)[C@@H](NC(=O)[C@H](CC(=O)O)NC(=O)[C@@H](CC(N)=O)NC(=O)[C@H](Cc2c[nH]c3ccccc23)NC(=O)C2(c3ccc(Cl)cc3)CCCCC2)[C@@H](C)OC(=O)[C@H](CC(=O)c2ccccc2N)NC1=O [Compound 72] | >32 | >32 | >32 | >32 | >32 | >32 | >32 | 32 |  |  |  | 
CCCCc1ccc(CC(=O)N[C@@H](Cc2c[nH]c3ccccc23)C(=O)N[C@H](CC(N)=O)C(=O)N[C@@H](CC(=O)O)C(=O)N[C@@H]2C(=O)NCC(=O)N[C@@H](CCCN)C(=O)N[C@@H](CC(=O)O)C(=O)N[C@H](C)C(=O)N[C@@H](CC(=O)O)C(=O)NCC(=O)N[C@H](CO)C(=O)N[C@@H]([C@H](C)CC(=O)O)C(=O)N[C@@H](CC(=O)c3ccccc3N)C(=O)O[C@@H]2C)cc1 [Compound 44] | 8 | >32 | 16 | >32 | 4 | 4 | 4 | 8.00 |  |  |  | 
CCCCCCC12CCC(C(=O)N[C@@H](Cc3c[nH]c4ccccc34)C(=O)N[C@H](CC(N)=O)C(=O)N[C@@H](CC(=O)O)C(=O)N[C@@H]3C(=O)NCC(=O)N[C@@H](CCCN)C(=O)N[C@@H](CC(=O)O)C(=O)N[C@H](C)C(=O)N[C@@H](CC(=O)O)C(=O)NCC(=O)N[C@H](CO)C(=O)N[C@@H]([C@H](C)CC(=O)O)C(=O)N[C@@H](CC(=O)c4ccccc4N)C(=O)O[C@@H]3C)(CC1)CC2 [Compound 23] | 0.5 | 4 | 0.5 | 4 | 1 | 0.5 | 0.50 | 0.5 |  |  |  | 
C[C@H](CC(=O)O)[C@@H]1NC(=O)[C@@H](CO)NC(=O)CNC(=O)[C@H](CC(=O)O)NC(=O)[C@@H](C)NC(=O)[C@H](CC(=O)O)NC(=O)[C@H](CCCN)NC(=O)CNC(=O)[C@@H](NC(=O)[C@H](CC(=O)O)NC(=O)[C@@H](CC(N)=O)NC(=O)[C@H](Cc2c[nH]c3ccccc23)NC(=O)CCCCCCC2CCCCC2)[C@@H](C)OC(=O)[C@H](CC(=O)c2ccccc2N)NC1=O [Compound 25] | 0.5 | 16 | 1 | 8 | 1 | 0.5 | 0.5 | 1 |  |  |  | 
CCCCCCCCOc1ccc(-c2ccc(C(=O)N[C@@H](Cc3c[nH]c4ccccc34)C(=O)N[C@H](CC(N)=O)C(=O)N[C@@H](CC(=O)O)C(=O)N[C@@H]3C(=O)NCC(=O)N[C@@H](CCCN)C(=O)N[C@@H](CC(=O)O)C(=O)N[C@H](C)C(=O)N[C@@H](CC(=O)O)C(=O)NCC(=O)N[C@H](CO)C(=O)N[C@@H]([C@H](C)CC(=O)O)C(=O)N[C@@H](CC(=O)c4ccccc4N)C(=O)O[C@@H]3C)cc2)cc1 [Compound 64] |  | 16 |  | 4 | 0.5 |  |  | 1 | 0.5 | 1 | 0.25 | 0.125
CCCCCCCCCC(C)NC(=O)N[C@@H](Cc1c[nH]c2ccccc12)C(=O)N[C@H](CC(N)=O)C(=O)N[C@@H](CC(=O)O)C(=O)N[C@@H]1C(=O)NCC(=O)N[C@@H](CCCN)C(=O)N[C@@H](CC(=O)O)C(=O)N[C@H](C)C(=O)N[C@@H](CC(=O)O)C(=O)NCC(=O)N[C@H](CO)C(=O)N[C@@H]([C@H](C)CC(=O)O)C(=O)N[C@@H](CC(=O)c2ccccc2N)C(=O)O[C@@H]1C (single isomer, unassigned) [14 isomer II] | 0.5 | 16 | 0.25 | 8 | 1 | 0.25 | 0.25 | 2 |  |  |  | 
CCCCCCCCC1CC1C(=O)N[C@@H](Cc1c[nH]c2ccccc12)C(=O)N[C@H](CC(N)=O)C(=O)N[C@@H](CC(=O)O)C(=O)N[C@@H]1C(=O)NCC(=O)N[C@@H](CCCN)C(=O)N[C@@H](CC(=O)O)C(=O)N[C@H](C)C(=O)N[C@@H](CC(=O)O)C(=O)NCC(=O)N[C@H](CO)C(=O)N[C@@H]([C@H](C)CC(=O)O)C(=O)N[C@@H](CC(=O)c2ccccc2N)C(=O)O[C@@H]1C (single isomer, unassigned) [27 isomer I] | 2 | 32 | 4 | 32 | 8 | 2 | 2 | 2 |  |  |  | 
CCCCCCCCCCCCOc1ccc(C(=O)N[C@@H](Cc2c[nH]c3ccccc23)C(=O)N[C@H](CC(N)=O)C(=O)N[C@@H](CC(=O)O)C(=O)N[C@@H]2C(=O)NCC(=O)N[C@@H](CCCN)C(=O)N[C@@H](CC(=O)O)C(=O)N[C@H](C)C(=O)N[C@@H](CC(=O)O)C(=O)NCC(=O)N[C@H](CO)C(=O)N[C@@H]([C@H](C)CC(=O)O)C(=O)N[C@@H](CC(=O)c3ccccc3N)C(=O)O[C@@H]2C)cc1 [Compound 39] |  | 2 |  | 2 | 2.00 |  |  | 16 | 0.5 | 2.0 | 0.500 | 1.00
CCCCCOc1ccc(/C=C/C(=O)N[C@@H](Cc2c[nH]c3ccccc23)C(=O)N[C@H](CC(N)=O)C(=O)N[C@@H](CC(=O)O)C(=O)N[C@@H]2C(=O)NCC(=O)N[C@@H](CCCN)C(=O)N[C@@H](CC(=O)O)C(=O)N[C@H](C)C(=O)N[C@@H](CC(=O)O)C(=O)NCC(=O)N[C@H](CO)C(=O)N[C@@H]([C@H](C)CC(=O)O)C(=O)N[C@@H](CC(=O)c3ccccc3N)C(=O)O[C@@H]2C)cc1 [Compound 41] |  | >32 |  | >32 | 2 |  |  | 4 | 4 | 8 | 2 | 4
CCCCCCCCCCC(=O)N[C@@H](Cc1c[nH]c2ccccc12)C(=O)N[C@H](CC(N)=O)C(=O)N[C@@H](CC(=O)O)C(=O)N[C@@H]1C(=O)NCC(=O)N[C@@H](CCCN)C(=O)N[C@@H](CC(=O)O)C(=O)N[C@H](C)C(=O)N[C@@H](CC(=O)O)C(=O)NCC(=O)N[C@H](CO)C(=O)N[C@@H]([C@H](C)CC(=O)O)C(=O)N[C@@H](CC(=O)c2ccccc2N)C(=O)O[C@@H]1C [Compound 2] | 2 | 32 | 2 | >32 | 8 | 0.5 | 2 | 4 |  |  |  | 
CCCOc1ccc(-c2ccc(C(=O)N[C@@H](Cc3c[nH]c4ccccc34)C(=O)N[C@H](CC(N)=O)C(=O)N[C@@H](CC(=O)O)C(=O)N[C@@H]3C(=O)NCC(=O)N[C@@H](CCCN)C(=O)N[C@@H](CC(=O)O)C(=O)N[C@H](C)C(=O)N[C@@H](CC(=O)O)C(=O)NCC(=O)N[C@H](CO)C(=O)N[C@@H]([C@H](C)CC(=O)O)C(=O)N[C@@H](CC(=O)c4ccccc4N)C(=O)O[C@@H]3C)cc2)cc1 [Compound 59] | 4 | >32 | 4 | 32 | 4 | 0.5 | 0.5 | 4 |  |  |  | 
